Experimental data from US9186334B2 (Nuvo Research Inc., priority 2009, dated 2015).

Conditions: transdermal, 12 subjects
Description: Specifically, a single site, open label study was conducted on 12 subjects, with 4-way cross-over. Four (4) patches were applied for 2, 4, or 12 hours.

## CCN(CC)CC(=O)Nc1c(C)cccc1C [lidocaine]
  rate of delivery, heated patch versus unheated patch: more rapidly
